Results taken from patent US20250017964A1, “ENGINEERING OR INDUCING PDGF AND/OR PDGFR SIGNALING TO ENHANCE NK CELL THERAPY” (City of Hope, priority 2021, published 2025).
*1 amine or outer side, *2 acyl side, *3 side chain or, on linkers, in order; H or OH if unused. Where a SMILES comes first, the peptide text is derived from it. Bridges are numbered along the chain shown (N, C = ends). Roman numbers before positions name the chains, in order. [ ]: non-standard residue; d: D form. Actinocin(9to1) = Cc1c2oc3c(C)ccc(C(=O)[*:1])c3nc-2c(C(=O)[*:2])c(N)c1=O; NMeV = CN[C@H](C(=O)O)C(C)C; Sar = CNCC(=O)O

Columns and labels:
[1] = system: PDGFRβ expression in human NK cells; assay: Cytokine-induced PDGFRβ expression in purified human NK cells, flow cytometry; assay type: cell-based; details: cytokine 10 ng/ml, 24 h; IL-15 effect dose- and time-dependent
Description: Data shown are the percentages of PDGFRβ^+ NK cells among total NK cells (n=5). […] Bar=20 μm. […] Data represent three independent experiments. Data shown are means SD.
FIGS. 7A-7F. […] Data shown are representative histograms and mean fluorescence intensity (MFI) of PDGFRα. […] Expression levels of PDGFRβ were examined by flow cytometry (n=6). […] Data shown are the percentages of PDGFRβ^+ NK cells among total NK cells (n=5). […] Data shown are representative histograms with MFI of PDGFRβ expression. (F) Expression levels of PDGFRβ on NK cells from IL-15 transgenic (Tg) mice were determined by flow cytometry. Data shown are representative histograms. Data represent three independent experiments.
(§1) NK cells were cultured in RPMI 1640 with 10% heat-inactivated FBS (Gibco) at 37° C. in a 5% CO2 humidified incubator. For NK cell transduction, PDGFRB cDNA ORF clone (Cat: HG10514-G) was purchased from Sino Biological and cloned into pCDH-CMV-MCS-EF1-copGFP lentivirus vector (System Biosciences). To produce lentivirus, we transfected the lentiviral transfer vector DNA, together with psPAX2 packaging (Addgene) and pMD2.G envelope plasmid DNA (Addgene), into HEK293T cells; using a polyethyenimine (PEI) transfection protocol (Polysciences). Concentrated lentivirus was added to primary NK cells cultured in RPMI 1640 medium supplemented with 10% FCS and 10 jig/mL polybrene with 2,000×g centrifugation for 2 h. Cells were cultured for an additional 48 h. […] The cells were then collected for flow cytometry analysis. For the inhibition assay, NK cells were pretreated with the indicated inhibitors for 1 h, washed twice with RPMI 1640. and then treated with IL-15 for 24 h.
Cells were stained with the indicated cell-surface markers and/or fixed/permeabilized using a Fixation/Permeabilization Kit (eBioscience). For intracellular staining of IFN-γ and PDGF-D, 5 μg/ml Brefeldin A (BioLegend) was added for 4 h before cell harvest. Intracellular staining of Ki67 was performed by fixing and permeabilizing with the Foxp3/Transcription Factor Staining Kit (eBioscience).

[2] = system: IL-15-induced PDGFRβ expression; assay: Inhibition assay: IL-15-induced PDGFRβ expression after inhibitor pretreatment, flow cytometry; assay type: cell-based, human; details: washed, IL-15 10 ng/ml 24 h; for inhibition of PDGFRβ expression: DMSO control
Method: FIGS. 2A-2I. […] (A-B) Primary NK cells were treated with IL-15 (10 ng/ml) for the indicated times. mRNA levels of PDGFRB at different time points (A) (n=3) or at 1 h (B) (n=10) were examined by qPCR. (C-D) Primary NK cells were pretreated with actinomycin D (ActD, 5., g/ml) (C) or cycloheximide (CHX, 20 μg/ml) (D) for 1 h, washed twice with RPMI-1640, and then treated with IL-15 (10 ng/ml) for 24 h. DMSO was used as a control. Expression levels of PDGFRβ were examined by flow cytometry (n=5). […] (E) Primary NK cells were pretreated with wortmannin (1 μM), afuresertib (10 μM), TPCA-1 (1 μM), rapamycin (10 μM), torin1 (10 μM), decernotinib (10 μM), C118-9 (10 μM), STAT5-IN-1 (10 μM), AZD6244 (10 μM), or CI-1040 (10 μM) for 1 h, washed twice with RPMI 1640, and then treated with IL-15 (10 ng/ml) for 24 h. DMSO was used as control. Data shown are % of inhibition (n=5). The mean value of the inhibitory rate is shown. […] (G-I) Binding of p65 to the PDGFRB promoter in IL-15-treated NK cells (G) or resting NK cells (H) as determined by ChIP-qPCR or PCR (I) (n=3). Data represent three independent experiments. Data shown are means SD. NS, not significant. *P<0.05, **P<0.01, ***P<0.001, and ****P<0.0001.
FIGS. 8A-8E. […] (A) Scheme for the three IL-15 signaling pathways and their inhibitors. (B) Representative dot plots of PDGFRβ expression in NK cells treated with specific inhibitors. (C) Binding sites for p65 in the promoter regions of PDGFRB and PDGF-D genes (predicted from http://jaspar.genereg.net). […] The cells were collected for an immunoblot using anti-phosphor (p)-p65, anti-p65, and anti-actin antibodies. The ratios of p-p65 to actin were calculated using ImageJ (n=3). Data shown represent the mean±SD. NS, not significant, **P<0.01, ****P<0.0001.
as §1
Cells were stained with the indicated cell-surface markers and/or fixed/permeabilized using a Fixation/Permeabilization Kit (eBioscience). For intracellular staining of IFN-γ and PDGF-D, 5 μg/ml Brefeldin A (BioLegend) was added for 4 h before cell harvest. Intracellular staining of Ki67 was performed by fixing and permeabilizing with the Foxp3/Transcription Factor Staining Kit (eBioscience). For CD107a staining, CD107a antibody was added into the culture for 4 h in the presence of Brefeldin A. Annexin V staining was performed using an FITC Annexin V Apoptosis Detection Kit according to the manufacturer's protocol (BD Biosciences). Flow cytometry analysis was performed on BD LSRFortessa X-20 (BD Biosciences). Data were analyzed using NovoExpress software (Agilent Technologies).

[3] = inhibitor 10 μM pretreatment 1 h
[4] = inhibitor 1 μM pretreatment 1 h

IL-18: recombinant human IL-18 (B001-5)
PDGFRβ expression [1]: ineffective

CC[C@@](C)(Nc1ccnc(-c2c[nH]c3ncccc23)n1)C(=O)NCC(F)(F)F [decemotinib, decernotinib]
effect on IL-15-induced PDGFRβ expression [2, 3]: approximately one third

NC(=O)Nc1sc(-c2ccc(F)cc2)cc1C(N)=O [TPCA-1]
effect on IL-15-stimulated PDGFRβ expression [2, 4]: completely prevented

O=C(N/N=C/c1coc2ccccc2c1=O)c1cccnc1 [STAT5-IN-1]
effect on IL-15-induced PDGFRβ expression [2, 3]: either little inhibition or even promoted

CCC(=O)N1CCN(c2ccc(-n3c(=O)ccc4cnc5ccc(-c6cnc7ccccc7c6)cc5c43)cc2C(F)(F)F)CC1 [torin1]
effect on IL-15-induced PDGFRβ expression [2, 3]: dramatically and significantly blocked

Cc1c2oc3c(C)ccc(C(=O)N[C@@H]4C(=O)N[C@H](C(C)C)C(=O)N5CCC[C@H]5C(=O)N(C)CC(=O)N(C)[C@@H](C(C)C)C(=O)O[C@@H]4C)c3nc-2c(C(=O)N[C@@H]2C(=O)N[C@H](C(C)C)C(=O)N3CCC[C@H]3C(=O)N(C)CC(=O)N(C)[C@@H](C(C)C)C(=O)O[C@@H]2C)c(N)c1=O [actinomycin D] (I: T[dV]P[Sar][NMeV] / II: T[dV]P[Sar][NMeV]; ester I:1-I:C, II:1-II:C; linker I:N-II:N via Actinocin(9to1))
effect on IL-15-induced PDGFRβ expression ([2]; ActD pretreatment 1 h): no longer induced PDGFRβ expression

COC[C@H]1OC(=O)c2coc3c2[C@@]1(C)C1=C(C3=O)[C@@H]2CCC(=O)[C@@]2(C)C[C@H]1OC(C)=O [wortmannin]
inhibition of PDGFRβ expression [2, 4]: ~70%

O=C(NOCC1CC1)c1ccc(F)c(F)c1Nc1ccc(I)cc1Cl [CI-1040]
effect on IL-15-induced PDGFRβ expression [2, 3]: either little inhibition or even promoted

Cn1cnc2c(F)c(Nc3ccc(Br)cc3Cl)c(C(=O)NOCCO)cc21 [AZD6244]
effect on IL-15-induced PDGFRβ expression [2, 3]: either little inhibition or even promoted

C[C@@H]1C[C@@H]([C@H](O)CC2CC(=O)NC(=O)C2)C(=O)[C@@H](C)C1 [cycloheximide]
effect on IL-15-induced PDGFRβ expression ([2]; CHX, 20 μg/ml pretreatment 1 h): completely inhibited

Cn1ncc(Cl)c1-c1cc(C(=O)N[C@H](CN)Cc2cccc(F)c2)sc1Cl [afuresertib]
inhibition of PDGFRβ expression [2, 3]: ~70%
